Laboratory results from patent US20230286948A1 (HUYABIO International, LLC, priority 2022, published 2023).

Target: MLL1-WDR5 protein-protein interaction (Homo sapiens (Human), UniProt P61964)
Assay: WDR5 TR-FRET assay (MLL1-WDR5 PPI inhibition)
Assay type: binding
Conditions: 5 nM WDR5 protein, 10 nM peptide, read-out: IC50 (nM), MLL1-WDR5 PPI inhibitory activity
Procedure: WDR5 TR-FRET Assay Procedure: Stock compounds were transferred to the assay plate by Echo Liquid Handler. […] Stock compounds were incubated with WDR5 protein for 30 min at room temperature. Plates were covered, protected from light and incubated for 60 min at room temperature, after adding the peptide and Tb-Ab. EnVision Multimode Plate Reader (PerkinElmer) was used for the TR-FRET assay with excitation wavelength at 340 nm and emission wavelength at 495 and 520 nm. The ratio of the 520/495 wavelengths were used to assess the degree of the FRET signal. IC50 was calculated by fitting the inhibition data using XLfit software to sigmoidal dose-response model.

SMILES | IC50
C[C@@H]1CN(c2ccc(-n3cc(C(=O)NCCCN4CCOCC4)nn3)cc2NC(=O)c2c[nH]c(=O)cc2C(F)(F)F)C[C@H](C)N1C [Example 2, N-(5-(4-((3-morpholinopropyl)carbamoyl)-1H-1,2,3-triazol-1-yl)-2-((3S,5R)-3,4,5-trimethylpiperazin-1-yl)phenyl)-6-oxo-4-(trifluoromethyl)-1,6-dihydropyridine-3-carboxamide] | 16.7 nM
CN1CCN(c2ccc(-n3cc(C(=O)NCCCN4CCOCC4)nn3)cc2NC(=O)c2cnc(Cl)cc2C(F)(F)F)CC1 [Example 3, 6-chloro-N-(2-(4-methylpiperazin-1-yl)-5-(4-((3-morpholinopropyl)carbamoyl)-1H-1,2,3-triazol-1-yl)phenyl)-4-(trifluoromethyl)nicotinamide] | > 10000 nM
CN1CCN(c2ccc(-n3cc(C(=O)NCCCN4CCOCC4)nn3)cc2NC(=O)c2c[nH]c(=O)cc2C(F)(F)F)CC1 [Example 4] | 51.3 nM
C[C@@H]1CN(c2cc(F)c(-n3cc(C(=O)NCCCN4CCOCC4)nn3)cc2NC(=O)c2cnc(Cl)cc2C(F)(F)F)C[C@H](C)N1C [Example 5, 6-chloro-N-(4-fluoro-5-(4-((3-morpholinopropyl)carbamoyl)-1H-1,2,3-triazol-1-yl)-2-((3S,5R)-3,4,5-trimethylpiperazin-1-yl)phenyl)-4-(trifluoromethyl)nicotinamide] | 7270 nM
C[C@@H]1CN(c2cc(F)c(-n3cc(C(=O)NCCCN4CCOCC4)nn3)cc2NC(=O)c2c[nH]c(=O)cc2C(F)(F)F)C[C@H](C)N1C [Example 6, N-(4-fluoro-5-(4-((3-morpholinopropyl)carbamoyl)-1H-1,2,3-triazol-1-yl)-2-((3S,5R)-3,4,5-trimethylpiperazin-1-yl)phenyl)-6-oxo-4-(trifluoromethyl)-1,6-dihydropyridine-3-carboxamide] | 7.23 nM
CN1CCN(c2cc(F)c(-n3cc(C(=O)NCCCN4CCOCC4)nn3)cc2NC(=O)c2cnc(Cl)cc2C(F)(F)F)CC1 [Example 7, 6-chloro-N-(4-fluoro-2-(4-methylpiperazin-1-yl)-5-(4-((3-morpholinopropyl)carbamoyl)-1H-1,2,3-triazol-1-yl)phenyl)-4-(trifluoromethyl)nicotinamide] | > 10000 nM
CN1CCN(c2cc(F)c(-n3cc(C(=O)NCCCN4CCOCC4)nn3)cc2NC(=O)c2c[nH]c(=O)cc2C(F)(F)F)CC1 [Example 8, N-(4-fluoro-2-(4-methylpiperazin-1-yl)-5-(4-((3-morpholinopropyl)carbamoyl)-1H-1,2,3-triazol-1-yl)phenyl)-6-oxo-4-(trifluoromethyl)-1,6-dihydropyridine-3-carboxamide] | 21.2 nM
C[C@H]1CN(c2ccc(-n3cc(C(=O)NCCCN4CCOCC4)nn3)cc2NC(=O)c2cnc(Cl)cc2C(F)(F)F)CCN1C [Example 9, (S)-6-chloro-N-(2-(3,4-dimethylpiperazin-1-yl)-5-(4-((3-morpholinopropyl)carbamoyl)-1H-1,2,3-triazol-1-yl)phenyl)-4-(trifluoromethyl)nicotinamide] | > 10000 nM
C[C@H]1CN(c2ccc(-n3cc(C(=O)NCCCN4CCOCC4)nn3)cc2NC(=O)c2c[nH]c(=O)cc2C(F)(F)F)CCN1C [Example 10, (S)-N-(2-(3,4-dimethylpiperazin-1-yl)-5-(4-((3-morpholinopropyl)carbamoyl)-1H-1,2,3-triazol-1-yl)phenyl)-6-oxo-4-(trifluoromethyl)-1,6-dihydropyridine-3-carboxamide] | 9.12 nM
CN1CCN(c2ccc(-n3cc(C(=O)NCCCN4CCOCC4)nn3)cc2NC(=O)c2cnc(F)cc2C(F)(F)F)CC1 [Example 11, 6-fluoro-N-(2-(4-methylpiperazin-1-yl)-5-(4-((3-morpholinopropyl)carbamoyl)-1H-1,2,3-triazol-1-yl)phenyl)-4-(trifluoromethyl)nicotinamide] | 4230 nM
Cc1cc(C(F)(F)F)c(C(=O)Nc2cc(-n3cc(C(=O)NCCCN4CCOCC4)nn3)ccc2N2CCN(C)CC2)cn1 [Example 12, 6-methyl-N-(2-(4-methylpiperazin-1-yl)-5-(4-((3-morpholinopropyl)carbamoyl)-1H-1,2,3-triazol-1-yl)phenyl)-4-(trifluoromethyl)nicotinamide] | > 10000 nM
CN1CCN(c2ccc(-n3cc(C(=O)NCCCN4CCOCC4)nn3)cc2NC(=O)c2cnc(C#N)cc2C(F)(F)F)CC1 [Example 13, 6-cyano-N-[2-(4-methylpiperazin-1-yl)-5-[4-(3-morpholinopropylcarbamoyl)triazol-1-yl]phenyl]-4-(trifluoromethyl)pyridine-3-carboxamide] | > 10000 nM
CSc1cc(C(F)(F)F)c(C(=O)Nc2cc(-n3cc(C(=O)NCCCN4CCOCC4)nn3)ccc2N2CCN(C)CC2)cn1 [Example 14, N-[2-(4-methylpiperazin-1-yl)-5-[4-(3-morpholinopropylcarbamoyl)triazol-1-yl]phenyl]-6-methylsulfanyl-4-(trifluoromethyl)pyridine-3-carboxamide] | > 10000 nM
CN1CCN(c2ccc(-n3cc(C(=O)NCCCN4CCOCC4)nn3)cc2NC(=O)c2cnc(S(C)(=O)=O)cc2C(F)(F)F)CC1 [Example 15, N-[2-(4-methylpiperazin-1-yl)-5-[4-(3-morpholinopropylcarbamoyl)triazol-1-yl]phenyl]-6-methylsulfonyl-4-(trifluoromethyl)pyridine-3-carboxamide] | > 10000 nM
COc1cc(C(F)(F)F)c(C(=O)Nc2cc(-n3cc(C(=O)NCCCN4CCOCC4)nn3)ccc2N2CCN(C)CC2)cn1 [Example 16, 6-methoxy-N-(2-(4-methylpiperazin-1-yl)-5-(4-((3-morpholinopropyl)carbamoyl)-1H-1,2,3-triazol-1-yl)phenyl)-4-(trifluoromethyl)nicotinamide] | > 10000 nM
CCOc1cc(C(F)(F)F)c(C(=O)Nc2cc(-n3cc(C(=O)NCCCN4CCOCC4)nn3)ccc2N2CCN(C)CC2)cn1 [Example 17, 6-ethoxy-N-(2-(4-methylpiperazin-1-yl)-5-(4-((3-morpholinopropyl)carbamoyl)-1H-1,2,3-triazol-1-yl)phenyl)-4-(trifluoromethyl)nicotinamide] | > 10000 nM
CN1CCN(c2ccc(-n3cc(C(=O)NCCCN4CCOCC4)nn3)cc2NC(=O)c2cnc(N)cc2C(F)(F)F)CC1 [Example 18, 6-amino-N-(2-(4-methylpiperazin-1-yl)-5-(4-((3-morpholinopropyl)carbamoyl)-1H-1,2,3-triazol-1-yl)phenyl)-4-(trifluoromethyl)nicotinamide] | > 10000 nM
CN1CCN(c2ccc(-n3cc(C(=O)NCCCN4CCOCC4)nn3)cc2NC(=O)c2cnc(Cl)cc2Cl)CC1 [Example 19, 4,6-dichloro-N-[2-(4-methylpiperazin-1-yl)-5-[4-(3-morpholinopropylcarbamoyl)triazol-1-yl]phenyl]pyridine-3-carboxamide] | > 10000 nM
CN1CCN(c2ccc(-n3cc(C(=O)NCCCN4CCOCC4)nn3)cc2NC(=O)c2cnc(C(F)(F)F)cc2Cl)CC1 [Example 20, 4-chloro-N-(2-(4-methylpiperazin-1-yl)-5-(4-((3-morpholinopropyl)carbamoyl)-1H-1,2,3-triazol-1-yl)phenyl)-6-(trifluoromethyl)nicotinamide] | > 10000 nM
Cc1c(Cl)ncc(C(=O)Nc2cc(-n3cc(C(=O)NCCCN4CCOCC4)nn3)ccc2N2CCN(C)CC2)c1Cl [Example 21, 4,6-dichloro-5-methyl-N-(2-(4-methylpiperazin-1-yl)-5-(4-((3-morpholinopropyl)carbamoyl)-1H-1,2,3-triazol-1-yl)phenyl)nicotinamide] | 6570 nM
CN1CCN(c2ccc(-n3cc(C(=O)NCCCN4CCOCC4)nn3)cc2NC(=O)c2cnc(Cl)cc2N)CC1 [Example 22, 4-amino-6-chloro-N-(2-(4-methylpiperazin-1-yl)-5-(4-((3-morpholinopropyl)carbamoyl)-1H-1,2,3-triazol-1-yl)phenyl)nicotinamide] | > 10000 nM
CN1CCN(c2ccc(-n3cc(C(=O)NCCCN4CCOCC4)nn3)cc2NC(=O)c2cnc(Cl)cc2N(C)C)CC1 [Example 23, 6-chloro-4-(dimethylamino)-N-[2-(4-methylpiperazin-1-yl)-5-[4-(3-morpholinopropylcarbamoyl)triazol-1-yl]phenyl]pyridine-3-carboxamide] | > 10000 nM
Cc1cc(N)ncc1C(=O)Nc1cc(-n2cc(C(=O)NCCCN3CCOCC3)nn2)ccc1N1CCN(C)CC1 [Example 24, 6-amino-4-methyl-N-(2-(4-methylpiperazin-1-yl)-5-(4-((3-morpholinopropyl)carbamoyl)-1H-1,2,3-triazol-1-yl)phenyl)nicotinamide] | > 10000 nM
Cc1cc(F)ncc1C(=O)Nc1cc(-n2cc(C(=O)NCCCN3CCOCC3)nn2)ccc1N1CCN(C)CC1 [Example 25, 6-fluoro-4-methyl-N-(2-(4-methylpiperazin-1-yl)-5-(4-((3-morpholinopropyl)carbamoyl)-1H-1,2,3-triazol-1-yl)phenyl)nicotinamide] | > 10000 nM
Cc1ncc(C(=O)Nc2cc(-n3cc(C(=O)NCCCN4CCOCC4)nn3)ccc2N2CCN(C)CC2)c(C(F)(F)F)n1 [Example 26, 2-methyl-N-(2-(4-methylpiperazin-1-yl)-5-(4-((3-morpholinopropyl)carbamoyl)-1H-1,2,3-triazol-1-yl)phenyl)-4-(trifluoromethyl)pyrimidine-5-carboxamide] | > 10000 nM
CSc1ncc(C(=O)Nc2cc(-n3cc(C(=O)NCCCN4CCOCC4)nn3)ccc2N2CCN(C)CC2)c(C(F)(F)F)n1 [Example 27, N-(2-(4-methylpiperazin-1-yl)-5-(4-((3-morpholinopropyl)carbamoyl)-1H-1,2,3-triazol-1-yl)phenyl)-2-(methylthio)-4-(trifluoromethyl)pyrimidine-5-carboxamide] | > 10000 nM
